{"source": "patent US11085016B1", "about": "“Method for screening bacteria capable of degrading ethylene oxide” (priority 2020, dated 2021)", "key": {"[1]": {"assay": "Comparative experiment for the degradation of ethylene oxide (gas chromatography)", "conditions": "Example 3", "description": "The bacteria having a potential for degrading ethylene oxide which have not been subjected to the acclimatization steps and the strains capable of tolerating and degrading ethylene oxide obtained after the acclimatization steps were inoculated into activation medium, respectively, for activation, and cultured to a bacteria concentration of 10^10-10^12 cfu/mL in the culture.\nThe activation medium was made as follows: Peptone 10 g, filled with distilled water to 1000 mL which was distributed into 400 mL. Then, sterilization was performed at 121° C. for 20 min. Thereafter, the temperature of the medium was cooled down to RT for storage. 160 mg and 320 mg of ethylene oxide was added, respectively, by using a sealed syringe to obtain two activation media containing different concentrations (400 mg/L and 800 mg/L, respectively) of ethylene oxide for the test of degrading capability of the ethylene oxide-degrading strains.\nComparative experiment for the degradation of ethylene oxide was performed with the following test groups and control group.\nTest group 1: 5 mL of an activation culture of the bacteria capable of tolerating and degrading ethylene oxide was inoculated into 400 mL of activation media containing 400 mg/L (1A) and 800 mg/L (1B), respectively, of ethylene oxide. The amount of live bacteria in the medium was 10^8-10^10 cfu/mL.\nTest group 2: 5 mL of an activation culture of the bacteria having a potential for degrading ethylene oxide which have not been subjected to the acclimatization steps was inoculated into 400 mL of activation media containing 400 mg/L (2A) and 800 mg/L (2B), respectively, of ethylene oxide. The amount of live bacteria in the medium was 10^8-10^10 cfu/mL.\nControl group: 400 mL of activation media containing 400 mg/L (control group A) and 800 mg/L (control group B), respectively, of ethylene oxide with no bacteria strain inoculated.\nThe test groups and control groups are placed together in an incubated for culturing at 37° C. for 48 h. […] The result of degradation was detected by gas chromatography. […]\nthe subject samples to be analyzed were prepared by diluting samples from the treatment and control groups 5 times with deionized water;\nafter the GC instrument is stabilized and under the same conditions, 2 μL each of the ethylene oxide standards and the diluted samples to be analyzed were injected into the GC instrument, wherein each sample was measured twice in parallel;\nqualitive determination was conducted according to the retention time and quantitative calculation on each peak area was performed to take the average value; […]\nthe degradation rate of ethylene oxide for each sample was calculated according to the following formula: Degradation Rate (%)=(Control Group Concentration−Treatment Group Concentration)/Control Group Concentration×100. […]"}, "[2]": {"assay": "Ethylene oxide degradation acclimatization: growth on 800 mg/L ethylene oxide plates with decreasing carbon source", "set-up": "key: + normal growth; ± low growth", "description": "(§1) Ethylene oxide degradation acclimatization medium plates were made as follows: Peptone 10 g, glucose (20 g, 12 g, 4 g, and 0 g, respectively), agar 15 g, pH adjusted to 5.4-5.8, and filled with distilled water to 1000 mL which was distributed into 250 mL. Sterilization was then performed at 121° C. for 20 min. The medium was heated to melt before use. When the temperature of the medium was cooled down to 50-56° C., 200 mg of ethylene oxide was added by using a sealed injection needle to obtain four ethylene oxide degradation acclimatization medium plates containing different concentrations of carbon source (50%, 30%, 10%, 0%, respectively), named as ethylene oxide degradation acclimatization medium plate A, ethylene oxide degradation acclimatization medium plate B, ethylene oxide degradation acclimatization medium plate C, and ethylene oxide degradation acclimatization medium plate D, respectively.\n(§2) The ethylene oxide-tolerant bacteria were streak-inoculated on Ethylene Oxide Degradation Acclimatization medium A, and cultured at a constant temperature of 37° C. for 48 h; a single colony having a largest radius was picked for further inoculation on Ethylene Oxide Degradation Acclimatization medium B, and cultured at a constant temperature of 37° C. for 48 h; a single colony having a largest radius was picked for further inoculation on Ethylene Oxide Degradation Acclimatization medium C, and cultured at a constant temperature of 37° C. for 48 h; a single colony having a largest radius was picked for further inoculation on Ethylene Oxide Degradation Acclimatization medium D, and cultured at a constant temperature of 37° C. for 48 h; a single colony having a largest radius was picked and preserved on an agar medium bevel containing corresponding nutritional components in Ethylene Oxide Degradation Acclimatization medium D, to obtain ethylene oxide-degrading strains. Growth situation of the strains on the ethylene oxide degradation acclimatization medium plates A, B, C, and D are as shown in Table 1."}, "[3]": {"assay": "Ethylene oxide tolerance acclimatization: growth on medium plates with increasing ethylene oxide", "set-up": "key: + normal growth; ± low growth", "conditions": "Example 3, carbon source 100%", "description": "as §1, with “tolerance” for “degradation”, “40” for “(20”, “g,” for “g, 12 g, 4 g, and 0 g, respectively),”, “C., 25 mg, 50 mg, 125 mg, and” for “C.,”, “added, respectively,” for “added”, “ethylene oxide (100 mg/L, 200 mg/L, 500 mg/L, and 800 mg/L,” for “carbon source (50%, 30%, 10%, 0%,”\nas §2, with “The purified bacteria having a potential for degrading” for “The”, “oxide” for “oxide-tolerant bacteria”, “ethylene oxide tolerance acclimatization” for “Ethylene Oxide Degradation Acclimatization”, “h,” for “h; a single colony having a largest radius was picked and preserved on an agar medium bevel containing corresponding nutritional components in Ethylene Oxide Degradation Acclimatization medium D,”, “oxide-tolerant bacteria.” for “oxide-degrading strains.”, “tolerance” for “degradation”"}}}
{"substance": "Lactobacillus", "values": [{"measurement": "EO (400 mg/L)/C (0%) Degradation rate (%) After Acc.", "setting": "[1]; EO 400 mg/L, strain after acclimatization", "result": 75.96, "unit": "%"}, {"measurement": "EO (400 mg/L)/C (0%) Degradation rate (%) Before Acc.", "setting": "[1]; EO 400 mg/L, strain before acclimatization", "result": 17.32, "unit": "%"}, {"measurement": "EO (800 mg/L)/C (0%) Degradation rate (%) After Acc.", "setting": "[1]; EO 800 mg/L, strain after acclimatization", "result": 64.83, "unit": "%"}, {"measurement": "EO (800 mg/L)/C (0%) Degradation rate (%) Before Acc.", "setting": "[1]; EO 800 mg/L, strain before acclimatization", "result": 6.89, "unit": "%"}, {"measurement": "Growth, EO (800 mg/L)/ C (%) 0 %", "setting": "[2]; Example 3, carbon source 0%", "result": "+"}, {"measurement": "Growth, EO (800 mg/L)/ C (%) 10 %", "setting": "[2]; Example 3, carbon source 10%", "result": "+"}, {"measurement": "Growth, EO (800 mg/L)/ C (%) 30 %", "setting": "[2]; Example 3, carbon source 30%", "result": "+"}, {"measurement": "Growth, EO (800 mg/L)/ C (%) 50 %", "setting": "[2]; Example 3, carbon source 50%", "result": "+"}, {"measurement": "Growth, C (100%)/EO(mg/L) 100", "setting": "[3]; EO 100 mg/L", "result": "+"}, {"measurement": "Growth, C (100%)/EO(mg/L) 200", "setting": "[3]; EO 200 mg/L", "result": "+"}, {"measurement": "Growth, C (100%)/EO(mg/L) 500", "setting": "[3]; EO 500 mg/L", "result": "+"}, {"measurement": "Growth, C (100%)/EO(mg/L) 800", "setting": "[3]; EO 800 mg/L", "result": "+"}]}
